# Assay results from US3988340A, “6-Alkoxymethyl-1,2,3,5-tetrahydroimidazo[2,1-b]quinazolin-2-ones and 7-alkoxymethyl-6-[H]-1,2,3,4-tetrahydropyrimido[2,1-b]quinazolin-2-ones” (Bristol-Myers Company, priority 1975, dated 1976).
# Like-named read-outs stand apart in the source and are kept apart here.
# Tests used:
# [1] = Crystal formation in the liver of dogs at very high doses; type: in vivo, dog; conditions: compound or a metabolite
# [2] = system: biolaser induced thrombosis; experiment: Biolaser induced thrombosis in the rabbit ear chamber; type: in vivo
# From the text: (§1) Methodology for these three in vivo techniques has been previously reported (4, 5).
# [3] = Crystal deposits in tissues of animal species evaluated; type: in vivo; conditions: any tissue of any animal species evaluated up to the present time
# [4] = Mean aortic blood pressure in rats after oral administration; type: in vivo; conditions: 50 mg/kg oral; for Mean Aortic Blood Pressure % Change / Mean Aortic Blood Pressure: N=9, mean ± 1 S.E.
# Procedure: The blood pressure of unanesthetized rats and dogs was measured directly by means of a transducer attached to an intra-arterial cannula and in anesthetized dogs by a mercury manometer attached to a carotid cannula.
# The compounds of the instant invention were tested as the hydrochloride salts by the above method in normotensive rats in doses of 50 mg./kg. orally.
# Compound 12a (BL-4784a) was tested for its hypotensive activity in rats as follows:
# Rats were dosed orally with the test drug (50 mg/kg) or saline and blood pressure measurements were made at 30, 90, 150 and 300 mins. after drug administration.
# Saline administration in a volume equivalent to drug administration had only a minimal effect.
# [5] = system: Rabbit Platelet Rich Plasma; experiment: In vitro inhibition of induced platelet aggregation in the aggregometer, rabbit platelet rich plasma; type: cell-based; conditions: Oryctolagus cuniculus, read-out: EC50 & 95% Confidence Limits
# Procedure: The aggregometer method of Born (1), as modified by Mustard et al. (2) was used to assess the in vitro activity of the various compounds as to inhibition of adenosine diphosphate (ADP) and collagen induced platelet aggregation. Platelet rich plasma was separated by centrifugation from citrated (3.8 percent) rabbit blood. […] (3) was used to induce aggregation. The various compounds tested were dissolved in dimethylsulfoxide (DMSO) so that 5 mcl. added to the platelet rich plasma would yield the desired test concentration. Vehicle control trials were done and compared with aggregation induced in platelet rich plasma containing various concentrations of the test compounds. Dose response curves were obtained and Effective Concentration (EC50) values calculated.
# Compound 12a (BL-4784A) has been evaluated in a series of in vitro, ex vivo and in vivo animal models of platelet aggregation and thrombosis.
# [6] = Hypotensive activity compared with BL-3459; type: in vivo; conditions: associated with antiaggregative activity; versus BL-3459
# Dog Platelet Rich Plasma [7] = experiment: Ex vivo ADP induced platelet aggregation in dog PRP after oral drug administration; conditions: Canis lupus familiaris, PRP obtained before and 1 hr. after oral drug administration, read-out: ED50, ex vivo inhibition of ADP induced aggregation
# Procedure: BL-4784A was also tested ex vivo in dogs where ADP was used to induce aggregation in PRP samples obtained before and 1 hr. after oral drug administration.
# Before dosing the animals, blood samples are taken. The blood is centrifuged to obtain the blood platelet-rich plasma. Aggregation of this plasma is induced with ADP or collagen. This is the control.
# The animals are then dosed with the compounds to be tested (orally or parenterally). Depending upon the route of administration, one to two hours are allowed to elapse after dosing. Blood is drawn and the same procedure as for the control in untreated animals.
# The dose required to produce 50% inhibition of the aggregation is determined by dose response data obtained in this manner.
# [8] = In vivo solubility of compound or metabolite; type: physicochemical; conditions: compound or its metabolite, versus BL-3459
# Dog Platelet Rich Plasma [9] = experiment: In vitro inhibition of ADP induced platelet aggregation in the aggregometer, dog platelet rich plasma; type: cell-based; conditions: Canis lupus familiaris, read-out: EC50 & 95% Confidence Limits
# [10] = system: blood platelet aggregation; experiment: Blood platelet antiaggregative potency compared with BL-3459; conditions: versus BL-3459
# [11] = system: electrically induced carotid artery thrombosis; experiment: Electrically induced carotid artery thrombosis in the dog; type: in vivo; conditions: Canis lupus familiaris, po
# From the text: as §1
smiles,measurement,setting,value
Cc1cccc2c1CN1CC(=O)NC1=N2 [BL-3459],Crystal formation in liver,[1],formed crystals in the liver of dogs at very high doses
"COCc1cccc2c1CN1CC(=O)NC1=N2 [Compound 12a, 6-(α-methoxymethyl)-1,2,3,5-tetrahydroimidazo[2,1-b]quinazolin-2-one]",ED50,"[2]; Oryctolagus cuniculus, rabbit ear chamber, po",5.3 mg/kg
same,Activity in in vivo animal models of thrombosis,[2]; result in words for three in vivo animal models,significant activity in three in vivo animal models
same,Crystal deposits in tissue,[3],no crystal deposits have been observed in any tissue of any animal species
same,Aortic blood pressure lowering,[4]; result in words,significant lowering of aortic blood pressure
same,Mean Aortic Blood Pressure % Change,[4]; 30 min,-33 ± 4%
same,Mean Aortic Blood Pressure,"[4]; 30 min, *P = <.05",73 ± 5 mm Hg
same,Mean Aortic Blood Pressure % Change,[4]; 90 min,-27 ± 4%
same,Mean Aortic Blood Pressure,"[4]; 90 min, *P = <.05",79 ± 3 mm Hg
same,Mean Aortic Blood Pressure % Change,[4]; 150 min,-23 ± 2%
same,Mean Aortic Blood Pressure,"[4]; 150 min, *P = <.05",84 ± 3 mm Hg
same,Mean Aortic Blood Pressure % Change,[4]; 300 min,-20 ± 4%
same,Mean Aortic Blood Pressure,"[4]; 300 min, *P = <.05",87 ± 3 mm Hg
same,Mean Aortic Blood Pressure,[4]; time 0 min (before drug),111 ± 3 mm Hg
same,EC50,[5]; ADP induced (2.93 × 10^-5 M),0.2 µg/mL
same,EC50,"[5]; Antigen-Antibody complex (egg albumin, 2 μg/ml), PRP from sensitized rabbits",0.13 µg/mL
same,EC50,[5]; Arachidonic acid induced (50 μg/ml),0.27 µg/mL
same,EC50,[5]; Collagen induced,0.09 µg/mL
same,EC50,[5]; Thrombin induced (1 unit per ml),0.63 µg/mL
same,Degree of hypotensive activity,[6],lower degree of hypotensive activity
same,ED50,Dog Platelet Rich Plasma [7],1.79 mg/kg
same,Solubility in vivo,[8],more soluble in vivo
same,EC50,Dog Platelet Rich Plasma [9],0.19 µg/mL
same,Potency as blood platelet antiaggregate,[10],more potent than BL-3459
same,ED50,[11],10.5 mg/kg
